Patent US9000048B2, “Fluoropolymer-based emulsions for the intravenous delivery of fluorinated volatile anesthetics” (Wisconsin Alumni Research Foundation, priority 2006, dated 2015)
Values after ≈ are worked out from the molar mass of the structure shown.

How the values were obtained:
[1] = in vivo; cited from earlier work
[2] = Solubility of perfluorotridecane in sevoflurane; format: physicochemical; details: organic solvent or mixture, read-out: maximum solubility of perfluorotridecane in sevoflurane
From the text: If intercalation of perfluorotridecane between the perfluorocarbon blocks of F13M5 is the reason that phase separation occurred with sevoflurane, the same effect might be expected to happen when perfluorotridecane is used as an additive to stabilize emulsions of either FC-72 and perfluorooctyl bromide. […] The difference in emulsion stability is likely due to the different solubility of perfluorotridecane in the three fluorinated compounds. […] It is likely that the limited solubility of perfluorotridecane in sevoflurane led to its preferential adsorption at the interface, rather than at the center of the droplet. The greater solubility of perfluorotridecane in the other solvents allowed it to more easily reside in the center of the droplet and act truly as a secondary oil additive.

[3] = in vivo; cited from earlier work; remark: listed apart in the source
[4] = cited from earlier work
[5] = cited from earlier work; remark: listed apart in the source
[6] = Emulsion droplet sizing and stability by dynamic light scattering and visual phase separation; format: physicochemical
Experimental: The emulsions were sized by dynamic light scattering prior to use. For these measurements, the emulsions were mixed by inversion of the centrifuge tube to eliminate inhomogeneity due to either flocculation or sedimentation. The emulsions were then diluted by a factor of 300 by adding 10 μL of the emulsion to 2.990 mL of 0.9% NaCl. Sizing was done by dynamic light scattering (NICOMP 380 ZLS, Particle Sizing Systems, Santa Barbara, Calif.) with a 639 nm laser at a scattering angle of 90°. Each sample was run for 15 min and all numbers are reported as Gaussian volume weighted. The emulsions were only used if the average diameter was less than 350 nm. This cutoff was established to ensure consistent physical characteristics of the emulsion and to prevent acute toxicity that can develop with increased particle size.^15 Additionally, the emulsion was filtered through a 0.45 μm nylon syringe filter. The final nano-emulsions are milky-white.
As a typical example, sevoflurane (Abbott Labs, N. Chicago, Ill., 3.4 mL) and perfluorooctyl bromide (SynQuest Laboratories, Inc., Alachua, Fla., 1.7 mL) were added to an aqueous 0.9% NaCl solution (11.9 mL) of F13M5 (298 mg, 25 mg/mL), for a total volume of 17 mL. The two-phase mixture was homogenized with a low energy mixer (Power Gen 500, Fisher Scientific, Hampton, N.H.) for 1 min at 21000 rpm at room temperature. The crude emulsion was further homogenized under high pressure (5000 psi, 1 min) using a Microfluidizer (model 110 S, Microfluidics Corp., Newton, Mass.) with the temperature maintained at 20.0° C. with a cooling bath. The product emulsions were stored in 15 mL sterile centrifuge tubes (Corning Inc., Corning, N.Y.) at 4° C. until use. All emulsions were prepared in this same manner with the requisite percentages of each component as necessary. Intralipid emulsions were prepared by adding sevoflurane to Intralipid (20%, Fresenius Kabi, Uppsala, Sweden) and then homogenizing and microfluidizing as above. […]

For perfluoro(methyldecalin), the “circulatory half-time / half life in the body” value [1] is listed as 264 h.

In the case of `FC(F)(F)C(F)(F)C(F)(F)C(F)(F)C(F)(F)C(F)(F)C(F)(F)C(F)(F)C(F)(F)C(F)(F)C(F)(F)C(F)(F)C(F)(F)F` [perfluorotridecane], the solubility [2] is reported as 78 mg/mL (≈ 113 mM).

In the case of `CC(C)c1cccc(C(C)C)c1O` [propofol], the “therapeutic index, previously published values” [3] is given as 3.1.

For `FCOC(C(F)(F)F)C(F)(F)F` [sevoflurane], the water solubility [4] is listed as 6 mM (≈ 1200 µg/mL), the “maximum solubility of sevoflurane in 30% Intralipid” value ([5]; 30% Intralipid, gas equilibration) is listed as 3.46 % v/v and the “maximum amount of sevoflurane that can be stably emulsified in Intralipid” value ([5]; Intralipid) is listed as 3.5 % v/v. For the same compound, the “maximum of sevoflurane emulsified in Intralipid” value ([5]; in volume, non-fluorinated lipids (Intralipid)) was 3.6%.

For `FC(F)(F)C(F)(F)C(F)(F)C(F)(F)/C=C/C(F)(F)C(F)(F)C(F)(F)C(F)(F)F` [bis-perfluorobutyl ethylene], the “circulatory half-time / half life in the body” value [1] is listed as 170 h.

In the case of `FC1(F)C(F)(F)C(F)(F)C2(F)C(F)(F)C(F)(F)C(F)(F)C(F)(F)C2(F)C1(F)F` (centres unmarked) [perfluorodecalin], the “ripening with different stabilizing additives” value [6] is reported as “ripen similarly”.

In the case of `FC(F)(F)C(F)(F)C(F)(F)C(F)(F)C(F)(F)C(F)(F)C(F)(F)C(F)(F)Br` [perfluorooctyl bromide], the “ripening with different stabilizing additives” value [6] is listed as “ripen similarly”, the “droplet size / Ostwald ripening with perfluorotridecane as the additive” value ([6]; 20% v/v primary oil, perfluorotridecane additive, 1.5% w/v F13M5) is listed as “the size stabilized and Ostwald ripening appeared to be stopped” and the “circulatory half-time / half life in the body” value [1] is listed as “four”.

For `CCCC(C)C1(CC)C(=O)NC(=S)NC1=O` (centres unmarked) [thiopental], the “therapeutic index, previously published values” [3] is listed as 2.2.

For `FC(F)(Cl)C(F)(F)C(F)(F)C(F)(F)C(F)(F)C(F)(F)C(F)(F)C(F)(F)Cl` [perfluorodichlorooctane], the “circulatory half-time / half life in the body” value [1] is listed as 170 h.
